Toxic doses and inconclusive results are not listed. Cut-off read from the data, not from the text of the source: active = T/C of 150% or more; inactive = T/C below 125%.
Tested on: L1210 leukemia ip in BDF1 mice, survival T/C
Assay: NCI In Vivo Anticancer Drug Screen. Data for tumor model L1210 Leukemia (intraperitoneal) in B6D2F1 (BDF1) mice
Conditions: endpoint: mean survival time, higher = longer survival
Procedure, shortened: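 Mice bearing the transplanted tumor received compound or vehicle. Survival of the treated group was divided by that of the vehicle-treated control group to give the ratio.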

[1] = dose: 5.0 mg/kg/injection, schedule: Q01DX001 (ip), vehicle: saline
[2] = dose: 10.0 mg/kg/injection, schedule: Q01DX001 (ip), vehicle: saline
[3] = dose: 20.0 mg/kg/injection, schedule: Q01DX001 (ip), vehicle: saline
[4] = dose: 40.0 mg/kg/injection, schedule: Q01DX001 (ip), vehicle: saline
[5] = dose: 100.0 mg/kg/injection, schedule: Q01DX001 (ip), vehicle: carboxymethylcellulose (CMC)
[6] = dose: 100.0 mg/kg/injection, schedule: Q01DX009 (ip), vehicle: saline with Tween-80
[7] = dose: 200.0 mg/kg/injection, schedule: Q01DX009 (ip), vehicle: saline with Tween-80

Measured: T/C

CC/C=N\NC
inactive: [1] 111 % of control | dose: 6.6 mg/kg/injection, schedule: Q01DX015 (ip), vehicle: saline 94 % of control | [2] 103 % of control | dose: 10.0 mg/kg/injection, schedule: Q01DX015 (ip), vehicle: saline 94 % of control | dose: 15.0 mg/kg/injection, schedule: Q01DX015 (ip), vehicle: saline 100 % of control | [3] 112 % of control | dose: 22.5 mg/kg/injection, schedule: Q01DX015 (ip), vehicle: saline 95 % of control | [4] 120 % of control

O=Cc1cccn1-c1ccc2ncccc2c1[N+](=O)[O-]
inactive: dose: 50.0 mg/kg/injection, schedule: Q04DX002 (ip), vehicle: Klucel (hydroxypropylcellulose) (HPC) 90 % of control | dose: 100.0 mg/kg/injection, schedule: Q04DX002 (ip), vehicle: Klucel (hydroxypropylcellulose) (HPC) 111 % of control | dose: 200.0 mg/kg/injection, schedule: Q04DX002 (ip), vehicle: Klucel (hydroxypropylcellulose) (HPC) 93 % of control

Nc1nnnc2nc[nH]c12
inactive: dose: 12.5 mg/kg/injection, schedule: Q01DX Z (ip), vehicle: carboxymethylcellulose (CMC) 100 % of control | dose: 25.0 mg/kg/injection, schedule: Q01DX Z (ip), vehicle: carboxymethylcellulose (CMC) 93 % of control

CCCCCCCCCC(=O)N/N=C/c1ccccc1Cl
inactive: dose: 12.5 mg/kg/injection, schedule: Q01DX009 (ip), vehicle: Klucel (hydroxypropylcellulose) (HPC) 112 % of control | dose: 25.0 mg/kg/injection, schedule: Q01DX009 (ip), vehicle: Klucel (hydroxypropylcellulose) (HPC) 113 % of control | dose: 50.0 mg/kg/injection, schedule: Q01DX009 (ip), vehicle: Klucel (hydroxypropylcellulose) (HPC) 104 % of control

NC1=C(Sc2ccccc2)C(=O)c2ccccc2C1=O
inactive: dose: 100.0 mg/kg/injection, schedule: Q01DX001 (ip), vehicle: saline with Tween-80 105 % of control | dose: 200.0 mg/kg/injection, schedule: Q01DX001 (ip), vehicle: saline with Tween-80 94 % of control | dose: 400.0 mg/kg/injection, schedule: Q01DX001 (ip), vehicle: saline with Tween-80 94 % of control

CCSCCC1(CCC(C)C)C(=O)NC(=Nc2ccccc2)NC1=O (centres undefined)
inactive: [5] 90 % of control | dose: 200.0 mg/kg/injection, schedule: Q01DX001 (ip), vehicle: carboxymethylcellulose (CMC) 88 % of control | dose: 400.0 mg/kg/injection, schedule: Q01DX001 (ip), vehicle: carboxymethylcellulose (CMC) 96 % of control

CC(C)C(N)C(=O)OC(=O)C(N)CCCCN (centres undefined)
inactive: dose: 12.5 mg/kg/injection, schedule: Q04DX002 (ip), vehicle: saline 107 % of control | dose: 25.0 mg/kg/injection, schedule: Q04DX002 (ip), vehicle: saline 104 % of control | dose: 50.0 mg/kg/injection, schedule: Q04DX002 (ip), vehicle: saline 101 % of control | dose: 100.0 mg/kg/injection, schedule: Q01DX001 (ip), vehicle: saline 108 % of control | dose: 200.0 mg/kg/injection, schedule: Q01DX001 (ip), vehicle: saline 101 % of control | dose: 400.0 mg/kg/injection, schedule: Q01DX001 (ip), vehicle: saline 98 % of control

COc1cccc2c1C(=O)c1c(O)c3c(c(O)c1C2=O)CC(O)(C(C)=O)CC3O (centres undefined)
inactive: dose: 0.16 mg/kg/injection, schedule: Q01DX009 (ip), vehicle: saline with Tween-80 103 % of control | dose: 0.16 mg/kg/injection, schedule: Q03HX008 (ip), vehicle: saline with Tween-80 100 % of control | dose: 0.32 mg/kg/injection, schedule: Q01DX009 (ip), vehicle: saline with Tween-80 90 % of control | dose: 0.32 mg/kg/injection, schedule: Q03HX008 (ip), vehicle: saline with Tween-80 97 % of control | dose: 0.63 mg/kg/injection, schedule: Q01DX009 (ip), vehicle: saline with Tween-80 99 % of control | dose: 0.63 mg/kg/injection, schedule: Q03HX008 (ip), vehicle: saline with Tween-80 100 % of control | dose: 1.25 mg/kg/injection, schedule: Q01DX009 (ip), vehicle: saline with Tween-80 94 % of control | dose: 1.25 mg/kg/injection, schedule: Q03HX008 (ip), vehicle: saline with Tween-80 95 % of control | dose: 2.5 mg/kg/injection, schedule: Q01DX009 (ip), vehicle: saline with Tween-80 91 % of control | dose: 2.5 mg/kg/injection, schedule: Q03HX008 (ip), vehicle: saline with Tween-80 95 % of control | [1] 102 % of control | dose: 5.0 mg/kg/injection, schedule: Q01DX009 (ip), vehicle: saline with Tween-80 101 % of control | dose: 5.0 mg/kg/injection, schedule: Q03HX008 (ip), vehicle: saline with Tween-80 97 % of control | [2] 94 % of control | dose: 10.0 mg/kg/injection, schedule: Q01DX009 (ip), vehicle: saline with Tween-80 100 % of control | dose: 10.0 mg/kg/injection, schedule: Q03HX008 (ip), vehicle: saline with Tween-80 90 % of control | dose: 20.0 mg/kg/injection, schedule: Q01DX001 (ip), vehicle: saline with Tween-80 100 % of control | [3] 105 % of control | dose: 20.0 mg/kg/injection, schedule: Q04DX003 (ip), vehicle: saline with Tween-80 96 % of control | dose: 40.0 mg/kg/injection, schedule: Q01DX001 (ip), vehicle: saline with Tween-80 100 % of control | [4] 105 % of control | dose: 40.0 mg/kg/injection, schedule: Q04DX003 (ip), vehicle: saline with Tween-80 103 % of control | dose: 80.0 mg/kg/injection, schedule: Q01DX001 (ip), vehicle: saline with Tween-80 102 % of control | dose: 80.0 mg/kg/injection, schedule: Q04DX003 (ip), vehicle: saline with Tween-80 102 % of control | dose: 160.0 mg/kg/injection, schedule: Q01DX001 (ip), vehicle: saline with Tween-80 105 % of control | dose: 160.0 mg/kg/injection, schedule: Q04DX003 (ip), vehicle: saline with Tween-80 103 % of control

CC(=O)Nc1c(I)c(NC(C)=O)c(I)c(C(=O)O)c1I
inactive: dose: 50.0 mg/kg/injection, schedule: Q01DX009 (ip), vehicle: saline with Tween-80 105 % of control | [6] 99 % of control | [7] 108 % of control

CNC(Cl)(Cl)NC
inactive: dose: 50.0 mg/kg/injection, schedule: Q01DX009 (ip), vehicle: saline 90 % of control | dose: 100.0 mg/kg/injection, schedule: Q01DX009 (ip), vehicle: saline 87 % of control | dose: 100.0 mg/kg/injection, schedule: Q04DX002 (ip), vehicle: saline 86 % of control | dose: 200.0 mg/kg/injection, schedule: Q04DX002 (ip), vehicle: saline 88 % of control

COc1cc([N+](=O)[O-])ccc1NC(=O)Nc1ccccc1F
inactive: dose: 100.0 mg/kg/injection, schedule: Q01DX009 (ip), vehicle: Klucel (hydroxypropylcellulose) (HPC) 98 % of control | dose: 200.0 mg/kg/injection, schedule: Q01DX009 (ip), vehicle: Klucel (hydroxypropylcellulose) (HPC) 93 % of control | dose: 400.0 mg/kg/injection, schedule: Q01DX009 (ip), vehicle: Klucel (hydroxypropylcellulose) (HPC) 89 % of control

COc1ccc(CSSP(=S)(OC)c2ccc(OC)cc2)cc1 (centres undefined)
inactive: [6] 91 % of control | [7] 95 % of control | dose: 400.0 mg/kg/injection, schedule: Q01DX009 (ip), vehicle: saline with Tween-80 88 % of control

C[N+](C)(CCc1ccccc1)CC(O)COc1ccccc1 (centres undefined)
inactive: dose: 4.5 mg/kg/injection, schedule: Q01DX009 (ip), vehicle: Klucel (hydroxypropylcellulose) (HPC) 89 % of control | dose: 9.0 mg/kg/injection, schedule: Q01DX009 (ip), vehicle: Klucel (hydroxypropylcellulose) (HPC) 92 % of control | dose: 18.0 mg/kg/injection, schedule: Q01DX009 (ip), vehicle: Klucel (hydroxypropylcellulose) (HPC) 94 % of control | dose: 18.75 mg/kg/injection, schedule: Q04DX003 (ip), vehicle: Klucel (hydroxypropylcellulose) (HPC) 98 % of control

CCCCCCCCCCCCCCCCCC(=O)CS(C)=O (centres undefined)
inactive: dose: 100.0 mg/kg/injection, schedule: Q04DX003 (ip), vehicle: Klucel (hydroxypropylcellulose) (HPC) 94 % of control | dose: 200.0 mg/kg/injection, schedule: Q04DX003 (ip), vehicle: Klucel (hydroxypropylcellulose) (HPC) 91 % of control | dose: 400.0 mg/kg/injection, schedule: Q04DX003 (ip), vehicle: Klucel (hydroxypropylcellulose) (HPC) 96 % of control

CC(=O)C(=O)C=C(C(F)(F)F)C(F)(F)F
inactive: dose: 100.0 mg/kg/injection, schedule: Q04DX003 (ip), vehicle: saline with Tween-80 113 % of control | dose: 200.0 mg/kg/injection, schedule: Q04DX003 (ip), vehicle: saline with Tween-80 106 % of control | dose: 400.0 mg/kg/injection, schedule: Q04DX003 (ip), vehicle: saline with Tween-80 101 % of control

CCCCCCCCCCCC[As](=O)(O)O
inactive: dose: 50.0 mg/kg/injection, schedule: Q01DX001 (ip), vehicle: carboxymethylcellulose (CMC) 96 % of control | [5] 93 % of control
